In patent US9580409B2, “Modulators of opioid receptors and methods of use thereof” (priority 2011, dated 2017):

How the values were obtained:
mu-opioid receptor [1] = target: T1, mu-opioid receptor (Homo sapiens, UniProt P35372); assay: biochemical; settings: […]; class symbol combines EC50 and efficacy; read-out: GTP Activity
Target sequence in this assay (P35372 whole entry, species assumed): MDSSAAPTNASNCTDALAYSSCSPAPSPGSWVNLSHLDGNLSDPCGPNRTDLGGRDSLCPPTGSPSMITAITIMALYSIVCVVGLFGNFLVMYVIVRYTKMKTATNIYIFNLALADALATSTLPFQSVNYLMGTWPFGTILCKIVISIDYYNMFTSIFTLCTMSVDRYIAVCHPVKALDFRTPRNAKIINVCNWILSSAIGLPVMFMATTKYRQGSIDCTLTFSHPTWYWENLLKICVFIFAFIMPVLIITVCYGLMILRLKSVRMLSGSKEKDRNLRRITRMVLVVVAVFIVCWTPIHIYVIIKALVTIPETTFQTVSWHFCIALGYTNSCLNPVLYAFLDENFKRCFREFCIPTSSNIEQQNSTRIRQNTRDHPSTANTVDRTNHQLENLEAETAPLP

mu-opioid receptor [2] = target: T1, mu-opioid receptor; assay: cell-based; settings: […]; class symbol combines EC50 and efficacy; read-out: BArr Activity
Target sequence in this assay (P35372 whole entry, species assumed): as above
Target sequence in this assay (P32121 whole entry partner, species assumed): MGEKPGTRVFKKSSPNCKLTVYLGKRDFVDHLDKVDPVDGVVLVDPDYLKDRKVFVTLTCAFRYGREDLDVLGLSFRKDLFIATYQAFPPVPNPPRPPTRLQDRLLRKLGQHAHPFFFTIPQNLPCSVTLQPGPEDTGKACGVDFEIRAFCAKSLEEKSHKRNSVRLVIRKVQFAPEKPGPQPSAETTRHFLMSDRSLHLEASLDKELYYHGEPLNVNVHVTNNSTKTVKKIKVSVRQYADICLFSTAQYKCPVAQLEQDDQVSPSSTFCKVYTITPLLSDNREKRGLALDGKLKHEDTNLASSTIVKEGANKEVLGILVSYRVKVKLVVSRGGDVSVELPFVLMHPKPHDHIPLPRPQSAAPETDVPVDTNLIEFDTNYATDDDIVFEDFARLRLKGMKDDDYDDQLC

Structure (SMILES)	EC50 (mu-opioid receptor [1]) [nM]	EC50 (mu-opioid receptor [2]) [nM]
CCC(=O)NCCC1C(=O)C(c2nc3ccccc3[nH]2)=C(N)N1c1cc(OC)cc(OC)c1 (centres unmarked) [compound 235]	< 100	< 10000
COc1cc(OC)cc(N2C(N)=C(c3nc4ccccc4[nH]3)C(=O)C2CCNC(=O)c2ccccc2)c1 (centres unmarked) [compound 236]	< 100	< 10000
COc1cc(OC)cc(N2C(N)=C(c3nc4ccccc4[nH]3)C(=O)[C@@H]2CCO)c1 [compound 242]	< 100	< 10000
CNC1=C(c2nc3ccccc3[nH]2)C(=O)C(CCNC(C)=O)N1c1cc(OC)cc(OC)c1 (centres unmarked) [compound 254]	< 100	< 10000
CNC1=C(c2nc3ccccc3[nH]2)C(=O)C(CCNC(=O)c2ccccc2)N1c1cc(OC)cc(OC)c1 (centres unmarked) [compound 255]	< 100	< 10000
CNC1=C(c2nc3ccccc3[nH]2)C(=O)C2(CCCOC2)N1c1cc(OC)cc(OC)c1 (centres unmarked) [compound 272]	< 100	< 10000
CNC1=C(c2nc3ccccc3[nH]2)C(=O)C(C)(CNC(C)=O)N1c1cc(OC)cc(OC)c1 (centres unmarked) [compound 281]	< 100	< 10000
CCC(=O)NCC1(C)C(=O)C(c2nc3ccccc3[nH]2)=C(NC)N1c1cc(OC)cc(OC)c1 (centres unmarked) [compound 282]	< 100	< 10000
CCC(=O)NCCC1(C)C(=O)C(c2nc3ccccc3[nH]2)=C(NC)N1c1cc(OC)cc(OC)c1 (centres unmarked) [compound 285]	< 100	< 10000
CNC1=C(c2nc3ccccc3[nH]2)C(=O)C(CNC(C)=O)N1c1cc(OC)cc(OC)c1 (centres unmarked) [compound 287]	< 100	< 10000
CCC(=O)NCC1C(=O)C(c2nc3ccccc3[nH]2)=C(NC)N1c1cc(OC)cc(OC)c1 (centres unmarked) [compound 288]	< 100	< 10000
CNC1=C(c2nc3ccccc3[nH]2)C(=O)[C@](C)(CCNC(C)=O)N1c1cc(OC)cc(OC)c1 [compound 303]	< 100	< 10000
CNC1=C(c2nc3ccccc3[nH]2)C(=O)[C@]2(CCCOC2)N1c1cc(OC)cc(OC)c1 [compound 305]	< 100	< 10000
CNC1=C(c2nc3ccccc3[nH]2)C(=O)[C@](C)(CNC(C)=O)N1c1cc(OC)cc(OC)c1 [compound 307]	100 to 1000	< 10000
CNC1=C(c2nc3ccccc3[nH]2)C(=O)[C@@](C)(CNC(C)=O)N1c1cc(OC)cc(OC)c1 [compound 308]	< 100	< 10000
CNC1=C(c2nc3ccccc3[nH]2)C(=O)C(CC(C)O)N1c1cc(OC)cc(OC)c1 (centres unmarked) [compound 310]	< 100	< 10000
